# Measured values taken from PMC8143291, “Cytotoxicity and Microbicidal Activity of Commonly Used Organic Solvents: A Comparative Study and Application to a Standardized Extract from Vaccinium macrocarpon” (Toxics, 2021).
# Legend:
# [1] = tested on: Candida Albicans SAIMC 562; assay: Broth microdilution MIC/MBC; format: cell-based; details: 24 h exposure; v/v; n = 3
# Text: The bacterial strains used for AST of the solvents included: Staphylococcus aureus (ATCC 29213), Staphylococcus aureus—MRSA (NBIMCC 8327—resistant to methicillin and oxacillin, National Bulgarian Collection for Industrial Microorganisms and Cell Cultures, Sofia, Bulgaria), Streptococcus pyogenes (SAIMC 10535, Collection of the Stephan Angeloff Institute of Microbiology, Sofia, Bulgaria), Enterococcus faecalis (ATCC 29212), Escherichia coli (ATCC 35218), Pseudomonas aeruginosa (ATCC 27853), and Yersinia enterocolitica (IP864 O:3, Collection of Institut Pasteur, Paris, France). The selected strains are the most often investigated ones in the AST research studies in correspondence with the standard ISO 20776-1 Part 1: Reference method for testing the in vitro activity of antimicrobial agents against rapidly growing aerobic bacteria involved in infectious diseases. […] The strains S. aureus, MRSA, E. coli and E. faecalis were grown on Mueller–Hinton broth/agar (MHB/MHA); S. pyogenes, P. aeruginosa, Y. enterocolitica and C. albicans were grown on brain heart infusion (BHI) broth/agar; E. coli was also grown on Luria–Bertani broth/agar (LBB/LBA).
# The minimum inhibitory concentration (MIC) for each solvent was estimated by the broth microdilution method (BMD) in 96-well microplates, following ISO 20776/1-2006 [3] and CLSI protocols. Briefly, a standardized bacterial inoculum was prepared from each bacterial species by suspending 3–4 colonies from a pure culture into 4 mL sterile saline. The turbidity of the inocula was adjusted to McFarland 0.5 (1.0 × 10^8 CFU/mL, λ = 600 nm), and 50 µL were resuspended in 10 mL of the appropriate culture medium for each strain. The bacterial inocula were added to microtiter trays containing equivalent volumes of medium loaded with the relevant solvent in concentrations varying from 0.025 to 25% volume fraction. The final volume of each sample was 100 µL/well. The plates were incubated at 37 °C for 24 h. The pure culture medium served as a negative control. Every MIC was evaluated visually as the lowest concentration without visible growth. […] MBC was defined as the lowest compound’s concentration reducing the colony growth of the initial bacterial inoculum by ≥ 99.9%.
# [2] = tested on: HaCaT (immortalized human keratinocytes); assay: MTT dye-reduction cytotoxicity assay (ISO 10993-5); format: cell-based; details: solvent alone, n = 3; for IC50 (CI 95%): 72 h incubation; for MTC (maximum tolerated concentration): 72 h, at least 70% of cells viable
# Text: The cell lines utilized in this study included the human tumor lines A-375 (malignant melanoma) and A-431 (non-melanoma epidermoid squamous skin carcinoma) as well as the models for non-tumorigenic cells—HaCaT (immortalized human keratinocytes) and CCL-1^TM (transformed mouse fibroblasts, NCTC clone 929). The first three cell lines were obtained from CLS Cell Lines Service (GmbH, Eppelheim, Germany). CCL-1^TM was purchased from the American Type Culture Collection (ATCC, Manassas, VA, USA). Cells were maintained in a controlled environment—sterile cell culture flasks in a CO2 incubator Panasonic MCO-18AC (Panasonic Healthcare co., ltd, Oizumi-Machi, Japan) at 37 °C and a humidified atmosphere containing 5% CO2. CCL-1 was cultured in MEM with 10% heat-inactivated horse serum and 2 mM L-glutamine, and the cell culture medium for the rest of the cell lines was DMEM-HG with 4.5 g/L glucose with the addition of 10% heat-inactivated fetal bovine serum and 4 mM L-glutamine. Pen/strep (concentration of penicillin G sodium 10^5 Units/L and of streptomycin sulfate 100 mg/L) was added to both culture media. The cell lines were maintained as an adherent monolayer in a log phase. The cells were sub-cultivated about 1–3 times per week after the monolayer reached 80–90% confluence. The medium was removed from the flask, and the cell monolayer was washed with 3–5 mL PBS. The cells were incubated with 0.05% EDTA in PBS for 8–10 min, followed by the next step where all cell lines were subjected to enzyme cell detachment. HaCaT and CCL-1 monolayers were detached with 1 mL solution of trypsin/EDTA (0.1%/0.05% for HaCaT and 0.25% (w/v)/0.53 mM for CCL-1) and incubated for 2–5 min at 37 °C (for HaCaT) or at room temperature (for CCL-1 cells), whereas Accutase® was used for A-375 and A-431 lines. The incubation lasted until the separation and dispersion of the cells in the monolayer were observed using light microscopy. In the end, all cell lines were resuspended in 10 mL medium and centrifuged for 3 min at 300× g. The cell pellet was resuspended in fresh medium and sub-cultivated at a seeding density of 1.0 × 10^4 cells/cm^2.
# The MTT test was performed in order to determine the median inhibitory (IC50) and MTC concentrations of the solvents and PAC according to Annex C, ISO 10993-5 [2, 21]. Briefly, 100 µL of the cell suspension (1 × 10^5 cells/mL) were seeded per well in 96-well plates with a flat bottom. The cells were incubated for 24 h, allowing them to enter the log phase of their growth. On the 24th hour, the cells were treated with the solvents or CystiCran® solutions in concentrations ranging between 0.004% and 2% volume fraction (v/v) and incubated further for 72 h. The incubation periods are following the recommendations of the FDA guide for the use of ISO 10993-1 [1]. At the end of the incubation period, 10 µL of an MTT solution (5 mg/mL) were added to each well, and the plates were kept at 37 °C for 2 hours. Thereafter, the medium was aspirated, and the formed formazan crystals were dissolved in 100 μL/well of 2-propanol supplemented with 5% formic acid. The same solvent was used as a blank. Untreated cells were considered as a negative control. […] The absorption was measured at 540 nm (reference filter at 690 nm) on a microplate reader ELx800 (BioTek Instruments, Inc., Winooski, VT, Winooski, VT, USA).
# The IC50 values from the MTT assay were evaluated with a non-linear regression analysis (Curve fit, GraphPad Prizm 6.01 software, GraphPad Software Inc., San Diego, CA, USA) using sigmoidal concentration–response curves. The cell viability is presented as a percentage of the untreated control. At least four wells were seeded for every concentration. Three independent assays were performed (n = 3).
Compound,MBC [1] [%],MIC [1] [%],IC50 (CI 95%) [2],MTC (maximum tolerated concentration) [2]
"C[S+](C)[O-] [DMSO, dimethyl sulfoxide]",6.25,6.25,1.25 % (v/v),
"CCO [EtOH, ethanol]",>25,>25,> 2 % (v/v),> 2 % (v/v)
polyethylene glycol of average molecular weight 400 [PEG-400],>25,>25,,0.41 % (v/v)
